This is an account of results in patent US20080194585A1, “Fungicidal Pyrazine Derivatives” (priority 2005, published 2008).

Experiment [1] relates to Colletotrichum orbiculare. The experiment in a line: Test B: cucumber Colletotrichum anthracnose, preventive spray on cucumber seedlings. As to conditions: for pest or weed control at 40 ppm / pest or weed control at 200 ppm: Colletotrichum orbiculare, in Cucumis sativus, 144 h; for pest or weed control at 200 ppm: read-out: Test B disease control rating, 200 ppm; for Test B disease control rating: 200 ppm.

For experiment [2], the system named is Erysiphe graminis f. sp. tritici. The experiment in a line: Test L: wheat powdery mildew, preventive spray on wheat seedlings. As to conditions: for pest or weed control at 40 ppm / pest or weed control at 200 ppm: Blumeria graminis, in Triticum aestivum, 168 h; for pest or weed control at 200 ppm: read-out: Test L disease control rating, 200 ppm; for Test L disease control rating: 200 ppm.

Experiment [3] deals with Rhizoctonia oryzae. Put plainly: Test G: turf brown patch, preventive spray on creeping bent grass seedlings. As to conditions: for pest or weed control at 40 ppm / pest or weed control at 200 ppm: Waitea circinata, in Agrostis stolonifera, topical, 144 h; for pest or weed control at 200 ppm: read-out: Test G disease control rating, 200 ppm; for Test G disease control rating: 200 ppm.
Procedure: (the causal agent of turf brown patch) and incubated in a saturated atmosphere at 27° C. for 24 h, and then moved to a growth chamber at 27° C. for 5 days, after which disease ratings were made.

The subject of experiment [4] is Plasmopara viticola. Put plainly: Test D: grape downy mildew, spray after inoculation of grape seedlings. It counts as in vivo. As to conditions: for pest or weed control at 40 ppm / pest or weed control at 200 ppm: Plasmopara viticola, 168 h, read-out: Test D disease control rating; for pest or weed control at 200 ppm / Test D disease control rating: 200 ppm. The text has this:
Upon removal, disease ratings were made. […] A dash (-) indicates no test results.

Experiment [5] has as its system Septoria tritici. Put plainly: Test J: wheat leaf blotch, preventive spray on wheat seedlings. It counts as in vivo. The source says: A dash (-) indicates no test results.
For experiment [6], the system named is Phytophthora infestans. The experiment in a line: whole plant or invertebrate. It is filed as in vivo. As to conditions: for pest or weed control at 40 ppm / pest or weed control at 200 ppm: Phytophthora infestans, in Solanum lycopersicum, topical, 144 h, read-out: Test F disease control rating; for Test F disease control rating: 200 ppm.
Experiment [7] deals with Pythium aphanidermatum. Put plainly: Test A: bluegrass pythium blight, preventive spray on bluegrass seedlings. As to conditions: for pest or weed control at 40 ppm / pest or weed control at 200 ppm: Pythium aphanidermatum, 120 h, read-out: Test A disease control rating; for Test A disease control rating: 200 ppm.
Experiment [8] concerns Botrytis cinerea. The experiment in a line: Test E: tomato botrytis, preventive spray on tomato seedlings. As to conditions: for pest or weed control at 40 ppm / pest or weed control at 200 ppm: Botrytis cinerea, in Solanum lycopersicum, topical, 72 h, read-out: Test E disease control rating; for Test E disease control rating: 200 ppm.
The test system of experiment [9] is Septoria nodorum. The experiment in a line: Test H: wheat glum blotch, preventive spray on wheat seedlings. As to conditions: for pest or weed control at 40 ppm / pest or weed control at 200 ppm: Parastagonospora nodorum, in Triticum aestivum, topical, 168 h; for pest or weed control at 200 ppm: read-out: Test H disease control rating, 200 ppm; for Test H disease control rating: 200 ppm.
Procedure: (the causal agent of wheat glum blotch) and incubated in a saturated atmosphere at 20° C. for 48 h, and then moved to a growth chamber at 22° C. for 5 days, after which disease ratings were made.

For experiment [10], the system named is Puccinia recondita f. sp. tritici. Put plainly: Test K: wheat leaf rust, preventive spray on wheat seedlings. As to conditions: for pest or weed control at 40 ppm / pest or weed control at 200 ppm: Puccinia recondita, in Triticum aestivum, 192 h, read-out: Test K disease control rating; for Test K disease control rating: 200 ppm.
Experiment [11] deals with fusarium graminearium. The experiment in a line: Test I: wheat head scab, preventive spray on wheat seedlings. As to conditions: for pest or weed control at 40 ppm / pest or weed control at 200 ppm: Fusarium, in Triticum aestivum, topical, 192 h; for pest or weed control at 200 ppm: read-out: Test I disease control rating, 200 ppm; for Test I disease control rating: 200 ppm.
Procedure: (the causal agent of wheat head scab) and incubated in a saturated atmosphere at 20° C. for 72 h, and then moved to a growth chamber at 22° C. for 5 days, after which disease ratings were made.

[12] abbreviates: read-out: Test B disease control rating, 40 ppm (*).
Setting [13] is: read-out: Test L disease control rating, 40 ppm (*).
Setting [14] is: read-out: Test G disease control rating, 40 ppm (*).
[15] abbreviates: Zymoseptoria tritici, 528 h, 40 ppm (*), read-out: Test J disease control rating.
Where [16] appears, read: read-out: Test H disease control rating, 40 ppm (*).
Where [17] appears, read: read-out: Test I disease control rating, 40 ppm (*).
[18] abbreviates: 100 = 100% disease control, 0 = no control.
Setting [19] is: Zymoseptoria tritici, 528 h, 40 ppm (marked *), 100 = 100% disease control, 0 = no control, read-out: Test J disease control rating.
Where [20] appears, read: 100 = 100% disease control, 0 = no control relative to controls.

Like-named read-outs stand apart in the source and are kept apart here.

In the case of `O=c1c(-n2cccn2)nc(Cl)c(-c2c(F)cccc2F)n1-c1ccccc1` [Compound 161, 5-Chloro-6-(2,6-difluorophenyl)-1-phenyl-3-(1H-pyrazol-1-yl)-2(1H)-pyrazinone], the pest or weed control at 40 ppm is 77% in experiment [1] (setting [12]); 90% in experiment [2] (setting [13]); 68% in experiment [3] (setting [14]); 0% in experiment [4] (40 ppm (*)); 97% in [5] (setting [15]); 0% in experiment [6]. For the same compound, the pest or weed control at 40 ppm in experiment [7] is 0%; in experiment [8], 100%; in [9] (setting [16]) it was 100%; in [10] it was 100%; in experiment [11] (setting [17]), 69%.
Consider `CCC(C)Cn1c(-c2ccc(F)cc2Cl)c(Cl)nc(-n2ccc(C)n2)c1=O` (stereo not shown) [Compound 170, 5-Chloro-6-(2-chloro-4-fluorophenyl)-1-(2-methylbutyl)-3-(3-methyl-1H-pyrazol-1-yl)-2(1H)-pyrazinone], for which the pest or weed control at 40 ppm was 100% in [1] (setting [12]); 99% in [2] (setting [13]); 26% in experiment [3] (setting [14]); 0% in experiment [4] (40 ppm (*)); 100% in experiment [5] (setting [15]); 0% in experiment [6]. The pest or weed control at 40 ppm in experiment [7] is 0%; in experiment [8] it was 100%; in experiment [9] (setting [16]), 100%; in experiment [10], 100%; in experiment [11] (setting [17]), 0%.
Consider `CCC(C)Cn1c(-c2c(F)cccc2F)c(Cl)nc(C(N)=O)c1=O` (stereo not shown) [Compound 298, 6-Chloro-5-(2,6-difluorophenyl)-3,4-dihydro-4-(2-methylbutyl)-3-oxopyrazinecarboxamide], for which the pest or weed control at 200 ppm in experiment [1] (setting [18]) amounted to 66%; in experiment [2] (setting [18]), 89%; in [3] (setting [18]) it was 78%; in [4] (setting [18]) it was 85%; in [5] (Zymoseptoria tritici, 528 h, 200 ppm, 100 = 100% disease control, 0 = no control, read-out: Test J disease control rating) it was 100%; in [6], 100%. Also, the pest or weed control at 200 ppm in [7] turned out to be 88%; in experiment [8], 99%; in experiment [9] (setting [18]), 99%; in [10], 100%; in experiment [11] (setting [18]), 96%.
Turning to `O=c1c(-n2cccn2)nc(Cl)c(-c2c(F)cc(F)cc2F)n1-c1cccc(F)c1` [Compound 324, 5-Chloro-1-(3-fluorophenyl)-3-(1H-pyrazol-1-yl)-6-(2,4,6-trifluorophenyl)-2(1H)-pyrazinone], the pest or weed control at 40 ppm in [1] (read-out: Test B disease control rating, 40 ppm (marked *), 100 = 100% disease control, 0 = no control) was found to be 99%; in experiment [2] (read-out: Test L disease control rating, 40 ppm (marked *), 100 = 100% disease control, 0 = no control), 100%; in experiment [3] (read-out: Test G disease control rating, 40 ppm (marked *), 100 = 100% disease control, 0 = no control), 97%; in experiment [4] (40 ppm (marked *), 100 = 100% disease control, 0 = no control) it was 0%; in [5] (setting [19]), 100%; in experiment [6], 0%. Besides, the pest or weed control at 40 ppm in experiment [7] was 0%; in experiment [8], 99%; in [9] (read-out: Test H disease control rating, 40 ppm (marked *), 100 = 100% disease control, 0 = no control), 100%; in [10], 100%; in [11] (read-out: Test I disease control rating, 40 ppm (marked *), 100 = 100% disease control, 0 = no control), 49%.
As for `CCC(C)c1c(Cl)nc(-n2cccn2)c(=O)n1CC(C)C` (stereo not shown) [Compound 424, 5-Chloro-6-(1-methylpropyl)-1-(2-methylpropyl)-3-(1H-pyrazol-1-yl)-2(1H)-pyrazinone], the pest or weed control at 200 ppm in experiment [1] (setting [20]) is 0%; in experiment [2] (setting [20]) it was 100%; in [3] (setting [20]) it was 99%; in [4] (setting [20]), 0%; in experiment [6] it was 0%; in experiment [7], 0%. The pest or weed control at 200 ppm turned out to be 96% in [8], 0% in experiment [9] (setting [20]), 100% in experiment [10] and 0% in experiment [11] (setting [20]). The pest or weed control at 40 ppm in experiment [5] (setting [19]) turned out to be 37%.
`O=c1c(-n2cncn2)nc(Cl)c(-c2c(F)cccc2F)n1CC1CC1` [compound 17]: in experiment [1], the “Test B disease control rating” value turned out to be 0%. Also, in experiment [2], the “Test L disease control rating” value came to 99%. Further, in experiment [3], the “Test G disease control rating” value came to 99%. The “Test D disease control rating” value in experiment [4] was determined as 54%. Also, the “Test J disease control rating” value in experiment [5] (200 ppm) is given as 87%. In addition, the “Test F disease control rating” value in experiment [6] turned out to be 0%. In experiment [7], the “Test A disease control rating” value amounted to 0%. For the same compound, the “Test E disease control rating” value in experiment [8] came out at 100%. Further, in experiment [9], the “Test H disease control rating” value is listed as 100%. Further, the “Test K disease control rating” value in experiment [10] is given as 100%. Also, the “Test I disease control rating” value in experiment [11] is 94%.
With `CC(C)Cn1c(-c2ccc(Cl)cc2)c(Cl)nc(-n2cccn2)c1=O` [compound 22], in [1], the “Test B disease control rating” value came out at 0%. Further, the “Test L disease control rating” value in [2] turned out to be 0%. Further, the “Test G disease control rating” value in experiment [3] is 0%. Besides, the “Test D disease control rating” value in experiment [4] is 0%. Moreover, the “Test J disease control rating” value in experiment [5] (200 ppm) was found to be 98%. Further, the “Test F disease control rating” value in experiment [6] is given as 0%. Also, the “Test A disease control rating” value in experiment [7] amounted to 0%. Besides, the “Test E disease control rating” value in experiment [8] was 100%. In addition, the “Test H disease control rating” value in experiment [9] turned out to be 0%. Moreover, in experiment [10], the “Test K disease control rating” value amounted to 79%. The “Test I disease control rating” value in experiment [11] amounted to 0%.
With `CCCC(C)n1c(-c2c(F)cccc2F)c(Cl)nc(-n2cccn2)c1=O` (stereo not shown) [compound 25], the “Test B disease control rating” value in [1] amounted to 100%. The “Test L disease control rating” value in experiment [2] turned out to be 100%. In addition, in experiment [3], the “Test G disease control rating” value is given as 100%. In experiment [4], the “Test D disease control rating” value is recorded as 0%. In experiment [5] (200 ppm), the “Test J disease control rating” value amounted to 100%. Moreover, the “Test F disease control rating” value in experiment [6] came to 0%. Moreover, the “Test A disease control rating” value in experiment [7] is given as 0%. Further, the “Test E disease control rating” value in experiment [8] is on record as 99%. Also, the “Test H disease control rating” value in experiment [9] is 100%. In addition, the “Test K disease control rating” value in experiment [10] is given as 100%. Besides, the “Test I disease control rating” value in [11] worked out at 0%.
